Results published in US4036979A, “Compositions containing 4,5,6,7-tetrahydrobenz[b]thien-4-yl-ureas or derivatives and methods of enhancing growth rate” (American Cyanamid Company, priority 1976, dated 1977).

Assay: Mouse Growth Regulant Tests (12-day weight gain over controls, compound in diet)
Assay type: in vivo, CFI female mice
Conditions: Mus musculus, feed or water, 288 h, Table IX; 400 ppm in diet
Protocol: CFI female mice from Carworth Farms are received when they are six weeks old. They are housed ten to a cage in air-conditioned rooms (72° F. to 76° F.) with automatically controlled lights, 14 hours on and 10 hours off. The basal diet used in these studies is Purina Laboratory Chow (see description below), which is supplied ad libitum. Water is also allowed ad libitum.
Thirteen days after arrival, the mice are weighed in groups of ten and assigned at random to the different treatments. Twelve days later the mice are weighed again and the experiment terminated. At least three cages (30 mice) of untreated controls are included in each test. Test data are provided in Tables VI, VII, VIII, and IX below wherein data are reported as percent weight gain over controls. Unless otherwise indicated in these tables, all compounds tested were dl-racemic mixtures. The following is a description of the diet to which the growth promoting compounds were added.

SMILES | change in vivo at 400 ppm [%]
NC(=O)NC1CCCC(=O)c2sccc21 (stereo not drawn) [5,6,7,8-tetrahydro-4H-8-oxocyclohepta[b]thien-4-ylurea] | 68.8
COCNC(=O)NC1CCCCc2sccc21 (stereo not drawn) [Table IX: O,H,H,CH2OCH3, 1-(methoxymethyl)-3-(5,6,7,8-tetrahydro-4H-cyclohepta[b]thien-4-yl)urea] | 10
CNC(=O)NC1CCCCc2sccc21 (stereo not drawn) [Table IX: O,H,H,CH3, 1-methyl-3-(5,6,7,8-tetrahydro-4H-cyclohepta[b]thien-4-yl)urea] | 41
NC(=O)NC1CCCCc2sccc21 (stereo not drawn) [Table IX: O,H,H,H, 5,6,7,8-tetrahydro-4H-cyclohepta[b]thien-4-ylurea] | 54
CCNC(=S)NC1CCCCc2sccc21 (stereo not drawn) [Table IX: S,H,H,C2H5, 1-ethyl-3-(5,6,7,8-tetrahydro-4H-cyclohepta[b]thien-4-yl)-2-thiourea] | 40

Same assay, conditions: Mus musculus, feed or water, 288 h, Table VI; 200 ppm in diet

SMILES | change in vivo at 200 ppm [%]
O=C(NC(=O)C(Cl)(Cl)Cl)NC1CCCc2sccc21 (stereo not drawn) | 37.4

Same assay, conditions: Mus musculus, feed or water, 288 h, Table VI; 400 ppm in diet

SMILES | change in vivo at 400 ppm [%]
O=C(NC1CCCc2sccc21)NC1CCCc2sccc21 (stereo not drawn) | 43
S=C(NCCc1ccccn1)NC1CCCc2sccc21 (stereo not drawn) | 15
S=C(NC1CC1)NC1CCCc2sccc21 (stereo not drawn) | 32
O=C(NC1CCCc2ccccc21)NC1CCCc2sccc21 (stereo not drawn) | 4
O=C(NC1CCc2ccccc21)NC1CCCc2sccc21 (stereo not drawn) | 8
O=C(NC1CCCc2sccc21)N1CCC2(CC1)C(=O)NCN2c1ccccc1 (stereo not drawn) | 14
O=C(Nc1ccc(Cl)cc1Cl)NC1CCCc2sccc21 (stereo not drawn) | 18
O=C(NCNC(=O)NC1CCCc2sccc21)NC1CCCc2sccc21 (stereo not drawn) | 29
COc1ccc(NC(=O)NC2CCCc3sccc32)cc1 (stereo not drawn) | 78
O=C(NCc1cccs1)NC1CCCc2sccc21 (stereo not drawn) | 39
O=C(NCc1cccnc1)NC1CCCc2sccc21 (stereo not drawn) | 48
C[n+]1cccc(CNC(=O)NC2CCCc3sccc32)c1 (stereo not drawn) | 6
O=C(Nc1ccc(Cl)cc1)NC1CCCc2sccc21 (stereo not drawn) | 21
COc1ccc(CNC(=O)NC2CCCc3sccc32)cc1 (stereo not drawn) | 16
O=C(NCc1ccccn1)NC1CCCc2sccc21 (stereo not drawn) | 41
O=C(NCc1ccncc1)NC1CCCc2sccc21 (stereo not drawn) | 46
O=C(NC1CCCc2sccc21)N1CCNCC1 (stereo not drawn) | 3
O=C(NCc1ccc(Cl)cc1)NC1CCCc2sccc21 (stereo not drawn) | 1
O=C(NC1CCCc2sccc21)N1CCCc2ccccc21 (stereo not drawn) | 4
O=C(NC1CC1)NC1CCCc2sccc21 (stereo not drawn) | 31
O=C(Nc1nccs1)NC1CCCc2sccc21 (stereo not drawn) | 11
COc1ccc(N2CCN(C(=O)NC3CCCc4sccc43)CC2)cc1 (stereo not drawn) | 24
O=C(NC1CCCc2sccc21)N1CCc2ccccc2C1 (stereo not drawn) | 7
O=C(Nc1ccc([N+](=O)[O-])cc1)NC1CCCc2sccc21 (stereo not drawn) | 9
CCOc1ccc(NC(=O)NC2CCCc3sccc32)cc1 (stereo not drawn) | 8
CCCCOc1ccc(NC(=O)NC2CCCc3sccc32)cc1 (stereo not drawn) | 9
O=C(NC1CCCc2sccc21)N(O)C1CCCCC1 (stereo not drawn) | 19

SMILES | change in vivo at 400 ppm [%]
CC(=O)NC(=O)NC1CCCc2sccc21 (stereo not drawn) | -1.4
COc1ccc(OC)c(NC(=O)NC2CCCc3sccc32)c1 (stereo not drawn) | 32.4
COc1cccc(NC(=O)NC2CCCc3sccc32)c1 (stereo not drawn) | 25
COc1ccc(NC(=S)NC2CCCc3sccc32)cc1 (stereo not drawn) | -1.4
O=C(NOc1ccccc1)NC1CCCc2sccc21 (stereo not drawn) | 90.6
NC(=O)NC1CCCc2sccc21 (single isomer, unassigned; (-)) [Table VI: O,H,H,H,H,H (levorotatory enantiomorph), (-)-4,5,6,7-tetrahydrobenzo[b]-thien-4-ylurea] | 122
CNC(=O)NC1(C)CCCc2sccc21 (stereo not drawn) [1-methyl-3-(4-methyl-4,5,6,7-tetrahydrobenzo[b]thien-4-yl)urea] | 39
CNC(=O)NC1CCC(C)(C)c2sccc21 (stereo not drawn) [1-methyl-3-(7,7-dimethyl-4,5,6,7-tetrahydrobenzo-[b]thien-4-yl)urea] | 15
NC(=O)NC1CCCc2sc(Br)cc21 (stereo not drawn) [Table VI: O,Br,H,H,H,H, 2-bromo-4,5,6,7-tetrahydrobenzo[b]-thien-4-ylurea] | 76.3
CCC(C)NC(=O)NC1CCCc2sc(C)c(C)c21 (stereo not drawn) [Table VI: O,CH3,CH3,H,2-butyl,H] | 3
Cc1sc2c(c1C)C(NC(N)=O)CCC2 (stereo not drawn) [Table VI: O,CH3,CH3,H,H,H] | 0
CCC(C)NC(=O)NC1CCCc2sc(C)cc21 (stereo not drawn) [Table VI: O,CH3,H,H,2-butyl,H] | 2
NC(=O)NC1CCCc2sc(Cl)cc21 (stereo not drawn) [Table VI: O,Cl,H,H,H,H, 2-chloro-4,5,6,7-tetrahydrobenzo[b]thien-4-ylurea] | 4.8
Cc1csc2c1C(NC(N)=O)CCC2 (stereo not drawn) [Table VI: O,H,CH3,H,H,H, 3-methyl-4,5,6,7-tetrahydrobenzo[b]thien-4-ylurea] | 26
CCCCCCNC(=O)NC1CCCc2scc(C)c21 (stereo not drawn) [Table VI: O,H,CH3,H,H,n-hexyl] | 21
CN(C(N)=O)C1CCCc2sccc21 (stereo not drawn) [Table VI: O,H,H,CH3,H, 1-methyl-1-(4,5,6,7-tetrahydrobenzo[b]-thien-4-yl)urea] | 27.2
C#CCN(Cc1ccccc1)C(=O)NC1CCCc2sccc21 (stereo not drawn) [Table VI: O,H,H,H,CH2C6H5,CH2CCH] | 30
O=C(NC1CCCc2sccc21)N(O)Cc1ccccc1 (stereo not drawn) [Table VI: O,H,H,H,CH2C6H5,OH] | 12
C#CCN(CC#C)C(=O)NC1CCCc2sccc21 (stereo not drawn) [Table VI: O,H,H,H,CH2CCH,CH2CCH] | 27
O=C(NC1CCCc2sccc21)N1CCCC1 (stereo not drawn) [Table VI: O,H,H,H,CH2CH2CH2CH2] | 18
O=C(NC1CCCc2sccc21)N1CCOCC1 (stereo not drawn) [Table VI: O,H,H,H,CH2CH2OCH2CH2, N-(4,5,6,7-tetrahydrobenzo[b]thien-4-yl)-4-morpholinecarboxamide] | 9.9
C=CCN(CC=C)C(=O)NC1CCCc2sccc21 (stereo not drawn) [Table VI: O,H,H,H,CH2CHCH2,CH2CHCH2] | 4
CN(Cc1ccccc1)C(=O)NC1CCCc2sccc21 (stereo not drawn) [Table VI: O,H,H,H,CH3,CH2C6H5] | 14
C#CCN(C)C(=O)NC1CCCc2sccc21 (stereo not drawn) [Table VI: O,H,H,H,CH3,CH2CCH] | 29
CN(C)C(=O)NC1CCCc2sccc21 (stereo not drawn) [Table VI: O,H,H,H,CH3,CH3, 1,1-dimethyl-3-(4,5,6,7-tetrahydrobenzo[b]thien-4-yl)urea] | 55.1
CON(C)C(=O)NC1CCCc2sccc21 (stereo not drawn) [Table VI: O,H,H,H,CH3,OCH3, 1-methoxy-1-methyl-3-(4,5,6,7-tetrahydrobenzo[b]thien-4-yl)urea] | 107
CN(O)C(=O)NC1CCCc2sccc21 (stereo not drawn) [Table VI: O,H,H,H,CH3,OH, 1-hydroxy-1-methyl-3-(4,5,6,7-tetrahydrobenzo[b]thien-4-yl)urea] | 49.6

Same assay, conditions: Mus musculus, feed or water, 288 h, Table VII; 25 ppm in diet

SMILES | change in vivo at 25 ppm [%]
NC(=O)NC1CCC(=O)c2sccc21 (single isomer, unassigned; (-)) [Table VII: O,H,H (levorotatory enantiomorph), (-)-4,5,6,7-tetrahydro-7-oxobenzo[b]thien-4-ylurea] | 119

Same assay, conditions: Mus musculus, feed or water, 288 h, Table VII; 200 ppm in diet

SMILES | change in vivo at 200 ppm [%]
NC(=O)NC1CCC(=O)c2sccc21 (single isomer, unassigned; (+)) [Table VII: O,H,H (dextrorotatory enantiomorph), (+)-4,5,6,7-tetrahydro-7-oxobenzo[b]thien-4-ylurea] | 9.4

Same assay, conditions: Mus musculus, feed or water, 288 h, Table VII; 400 ppm in diet

SMILES | change in vivo at 400 ppm [%]
O=C(NC(=O)C(Cl)(Cl)Cl)NC1CCC(=O)c2sccc21 (stereo not drawn) | 62.2
NC(=O)NC1CCC(=O)c2sc(Br)cc21 (stereo not drawn) [2-bromo-4,5,6,7-tetrahydro-7-oxobenzo[b]thien-4-ylurea] | 35.9

Same assay, conditions: Mus musculus, feed or water, 288 h, Table VIII; 50 ppm in diet

SMILES | change in vivo at 50 ppm [%]
NC(=O)NC1CCC(O)c2sccc21 (single isomer, unassigned; (+)) [Table VIII: O,H,H (dextrorotatory diastereomer, 95% isomer B), (+)-4,5,6,7-tetrahydro-7-hydroxybenzo[b]thien-4-ylurea] | -11.3

Same assay, conditions: Mus musculus, feed or water, 288 h, Table VIII; 200 ppm in diet

SMILES | change in vivo at 200 ppm [%]
NC(=O)NC1CCC(O)c2sccc21 (mixture of isomers) [Table VIII: O,H,H (mixture of dextrorotatory diastereomers, 62% isomer B)] | 13.5

Same assay, conditions: Table VIII; 25 ppm in diet

SMILES | & Weight Gain Over Controls [%]
NC(=O)NC1CCC(O)c2sccc21 (single isomer, unassigned; (+)) [Table VIII: O,H,H (dextrorotatory diastereomer, 90% isomer A), (+)-4,5,6,7-tetrahydro-7-hydroxybenzo[b]thien-4-ylurea] | 3.7
NC(=O)NC1CCC(O)c2sccc21 (single isomer, unassigned; (-)) [Table VIII: O,H,H (levorotatory diastereomer, 86% isomer A)] | 54.4
NC(=O)NC1CCC(O)c2sccc21 (single isomer, unassigned; (-)) [Table VIII: O,H,H (levorotatory diastereomer, 91.5% isomer B)] | 74.5
